This note sets out measurements from ChEMBL document CHEMBL4622831, “Anti-diabetic drugs recent approaches and advancements” (Bioorg Med Chem, 2020).

The structures appear in SMILES notation.

The nature of series [1]: Inhibition of Saccharomyces cerevisiae alpha-glucosidase using p-nitrophenyl glucopyranoside as substrate preincubated for 10 mins followed by substrate addition measured after 20 mins by spectrophotometric analysis.
Series [2] in a line: Toxicity in mouse. It counts as organism-based. To be noted: in vivo.
For series [3], the target named is T1, Glucose-dependent insulinotropic receptor (Homo sapiens, UniProt Q8TDV5).
T1 sequence (Q8TDV5 whole entry): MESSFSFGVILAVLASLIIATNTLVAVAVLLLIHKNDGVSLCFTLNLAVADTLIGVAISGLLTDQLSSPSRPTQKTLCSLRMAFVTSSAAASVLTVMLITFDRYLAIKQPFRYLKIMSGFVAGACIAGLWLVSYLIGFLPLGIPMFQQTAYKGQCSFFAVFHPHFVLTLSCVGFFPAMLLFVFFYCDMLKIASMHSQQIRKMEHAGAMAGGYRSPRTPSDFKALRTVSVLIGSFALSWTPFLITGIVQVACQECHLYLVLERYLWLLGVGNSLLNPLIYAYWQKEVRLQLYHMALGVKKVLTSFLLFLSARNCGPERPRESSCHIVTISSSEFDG
The series is described as follows: Agonist activity at human GPR119.

The target of series [4] is T2, Peroxisome proliferator-activated receptor gamma (Homo sapiens, UniProt P37231).
T2 sequence (P37231 whole entry): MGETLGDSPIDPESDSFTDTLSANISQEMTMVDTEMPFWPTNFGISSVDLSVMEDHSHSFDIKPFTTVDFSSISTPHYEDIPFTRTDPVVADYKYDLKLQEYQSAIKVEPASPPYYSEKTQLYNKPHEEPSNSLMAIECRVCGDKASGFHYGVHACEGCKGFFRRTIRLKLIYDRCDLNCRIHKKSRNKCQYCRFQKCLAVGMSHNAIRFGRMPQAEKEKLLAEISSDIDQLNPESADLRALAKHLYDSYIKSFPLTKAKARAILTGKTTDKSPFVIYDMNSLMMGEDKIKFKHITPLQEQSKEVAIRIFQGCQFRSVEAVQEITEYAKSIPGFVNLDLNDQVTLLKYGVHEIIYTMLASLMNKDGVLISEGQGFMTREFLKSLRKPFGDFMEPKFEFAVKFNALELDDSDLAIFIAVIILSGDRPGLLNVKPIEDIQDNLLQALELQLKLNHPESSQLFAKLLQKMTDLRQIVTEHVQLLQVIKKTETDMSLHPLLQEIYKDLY
Description: Agonist activity at PPARgamma (unknown origin)

A further series is filed under the species Rattus norvegicus. The series can be described thus: animal or person. The settings on record: Wistar.
The species entered for another series is Mus musculus. The series can be described thus: animal or person. To be noted: KK-A y.
In series [5] the target is T3, Dipeptidyl peptidase 4 (Homo sapiens, UniProt P27487). The series can be described thus: Inhibition of recombinant human DPP4 using Gly-Pro-AMC as substrate preincubated for 10 mins followed by substrate addition.
For series [6], the target named is T3, Dipeptidyl peptidase 4. The series is described as follows: Inhibition of recombinant human DPP4 using Gly-Pro-AMC as substrate preincubated for 10 mins followed by substrate addition by florescence assay.
Series [7] concerns the target Free fatty acid receptor 1 (Homo sapiens, UniProt O14842).
Description: Modulation of GPR40 (unknown origin)
Series [8] concerns the target T4, Sodium/glucose cotransporter 2 (Homo sapiens, UniProt P31639).
T4 sequence (P31639 whole entry): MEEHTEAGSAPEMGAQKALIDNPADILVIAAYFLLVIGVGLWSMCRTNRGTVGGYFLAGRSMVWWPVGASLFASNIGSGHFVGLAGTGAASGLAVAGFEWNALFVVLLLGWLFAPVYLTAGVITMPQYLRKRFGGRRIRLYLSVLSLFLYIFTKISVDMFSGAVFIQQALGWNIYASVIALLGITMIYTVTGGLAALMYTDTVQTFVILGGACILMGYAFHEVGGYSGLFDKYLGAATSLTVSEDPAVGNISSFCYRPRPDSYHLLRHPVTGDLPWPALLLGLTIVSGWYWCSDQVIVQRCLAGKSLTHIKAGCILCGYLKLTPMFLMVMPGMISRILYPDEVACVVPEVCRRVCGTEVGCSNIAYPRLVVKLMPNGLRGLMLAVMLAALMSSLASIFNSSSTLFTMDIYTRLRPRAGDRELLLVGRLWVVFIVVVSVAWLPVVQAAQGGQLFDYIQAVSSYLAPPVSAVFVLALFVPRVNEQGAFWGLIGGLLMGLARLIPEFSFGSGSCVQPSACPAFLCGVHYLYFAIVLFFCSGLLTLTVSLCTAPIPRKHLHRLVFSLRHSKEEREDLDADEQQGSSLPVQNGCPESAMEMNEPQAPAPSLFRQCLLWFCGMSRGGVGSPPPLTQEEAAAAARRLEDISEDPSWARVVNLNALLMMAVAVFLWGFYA
The series can be described thus: Inhibition of human SGLT2.

In series [9] the target is T5, Sodium/glucose cotransporter 1 (Homo sapiens, UniProt P13866).
T5 sequence (P13866 whole entry): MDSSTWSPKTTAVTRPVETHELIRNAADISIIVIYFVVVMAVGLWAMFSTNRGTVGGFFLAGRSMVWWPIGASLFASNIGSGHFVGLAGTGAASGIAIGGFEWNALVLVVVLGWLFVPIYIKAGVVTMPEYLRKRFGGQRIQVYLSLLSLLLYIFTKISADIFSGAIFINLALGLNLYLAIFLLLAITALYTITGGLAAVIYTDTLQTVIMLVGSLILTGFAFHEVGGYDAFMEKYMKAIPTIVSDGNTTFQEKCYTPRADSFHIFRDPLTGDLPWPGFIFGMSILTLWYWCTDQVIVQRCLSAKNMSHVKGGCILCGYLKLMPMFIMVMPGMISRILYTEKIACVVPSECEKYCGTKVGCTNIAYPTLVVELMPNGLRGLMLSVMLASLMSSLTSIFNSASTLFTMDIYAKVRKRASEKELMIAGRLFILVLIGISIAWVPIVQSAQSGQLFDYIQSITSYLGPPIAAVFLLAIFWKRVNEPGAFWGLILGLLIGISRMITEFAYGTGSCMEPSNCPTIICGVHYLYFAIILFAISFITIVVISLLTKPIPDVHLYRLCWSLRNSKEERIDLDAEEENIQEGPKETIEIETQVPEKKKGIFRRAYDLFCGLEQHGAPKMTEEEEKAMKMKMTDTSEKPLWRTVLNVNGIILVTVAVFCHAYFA
The series is described as follows: Inhibition of human SGLT1.

T3 sequence (P27487 whole entry): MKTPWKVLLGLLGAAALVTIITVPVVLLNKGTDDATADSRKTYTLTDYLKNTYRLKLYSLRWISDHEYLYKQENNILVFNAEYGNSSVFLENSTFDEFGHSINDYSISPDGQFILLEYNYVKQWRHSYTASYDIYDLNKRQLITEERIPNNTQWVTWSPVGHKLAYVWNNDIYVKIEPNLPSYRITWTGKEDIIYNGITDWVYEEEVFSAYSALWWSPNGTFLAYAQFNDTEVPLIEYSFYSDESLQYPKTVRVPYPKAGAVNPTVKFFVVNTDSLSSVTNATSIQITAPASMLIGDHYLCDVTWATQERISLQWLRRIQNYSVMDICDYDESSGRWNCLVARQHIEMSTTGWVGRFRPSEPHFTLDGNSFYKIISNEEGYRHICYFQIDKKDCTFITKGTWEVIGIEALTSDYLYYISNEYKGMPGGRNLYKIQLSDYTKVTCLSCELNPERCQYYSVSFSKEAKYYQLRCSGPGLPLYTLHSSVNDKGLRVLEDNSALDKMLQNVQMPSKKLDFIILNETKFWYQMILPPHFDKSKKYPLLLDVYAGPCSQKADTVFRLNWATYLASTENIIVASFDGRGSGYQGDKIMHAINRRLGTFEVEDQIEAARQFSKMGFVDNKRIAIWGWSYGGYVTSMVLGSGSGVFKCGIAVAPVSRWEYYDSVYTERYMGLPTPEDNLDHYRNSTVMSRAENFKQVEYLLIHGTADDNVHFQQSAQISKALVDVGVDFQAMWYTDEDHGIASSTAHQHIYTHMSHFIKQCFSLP
Chain of Free fatty acid receptor 1 (O14842 whole entry): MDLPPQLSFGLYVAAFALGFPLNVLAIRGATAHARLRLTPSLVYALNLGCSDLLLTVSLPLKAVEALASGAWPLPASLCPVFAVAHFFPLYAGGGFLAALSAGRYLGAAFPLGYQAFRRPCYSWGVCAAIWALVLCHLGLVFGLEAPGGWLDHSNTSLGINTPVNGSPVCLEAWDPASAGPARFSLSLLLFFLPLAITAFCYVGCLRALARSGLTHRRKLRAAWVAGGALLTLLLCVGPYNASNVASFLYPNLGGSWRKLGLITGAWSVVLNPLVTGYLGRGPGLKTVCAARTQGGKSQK
Description for Mus musculus: Antidiabetic activity in KK-A y mouse assessed as reduction in glucose levels
Description for Rattus norvegicus: Antidiabetic activity in Wistar rat assessed as reduction in glucose levels

`COc1ccc2c(c1)C(SCC(=O)NCc1ccc(C)cc1)c1ccc(Cl)cc1C2` (stereo unspecified): in series [1], the IC50 (usually the midpoint of a concentration-inhibition curve) turned out to be 80000 nM. As to `N#C[C@@H]1CCCN1C(=O)CNC12CC3CC(CC(O)(C3)C1)C2` [VILDAGLIPTIN], in [2], the MTD was found to be 2000 mg/kg. With `CC(C)(C)OC(=O)N1C2CCC1CC(Nc1nc(Nc3ccc(S(C)(=O)=O)cc3F)nc3c1CCCC3)C2` (stereo unspecified), the EC50 (commonly the midpoint of the concentration-response curve) in series [3] came out at 270 nM. As to `COc1cc(CCC[C@H]2OC(=O)NC2=O)ccc1OCc1nc(-c2ccco2)oc1C`, it took 8.87 nM to reach a half-maximal effect in [4] (EC50). Further, the ED25 in the series filed under Rattus norvegicus came to 0.05 mg/kg/day; in the series filed under Mus musculus, 0.0561 mg/kg/day.

In the case of `CC#CCn1c(N2CCC[C@@H](N)C2)cc(=O)n(Cc2cn(CC(=O)N(C)C)nn2)c1=O`, the IC50 at Dipeptidyl peptidase 4 [5] was found to be 28.6 nM. `Cc1ccc(NS(=O)(=O)c2ccc3c(c2)CCCC3)cc1`: the IC50 at Dipeptidyl peptidase 4 [6] came out at 2.8 nM. `COc1cc(N2CCC(Oc3ccc(N4N=C(C(F)(F)F)[C@@H](C)C4CC(=O)O)cc3)C(C)C2)c(Cl)cn1` (stereo partly specified): in series [7], the midpoint of the response, the EC50, lay at 71 nM. For the compound `ONC[C@H]1C[C@@H](n2cc(Cc3ccc(C4CC4)cc3)c3c(Cl)cccc32)[C@H](O)[C@@H](O)[C@@H]1O`, the results for the EC50 in series [8] and in series [9] were 33 nM and 37 nM, respectively.
